Test results reported in patent US20160082036A1, “HYDROXYALKYL STARCH FOR THE TREATMENT OF CANCERS BY REDUCTION OF TUMOR GROWTH RATES” (Fresenius Kabi Deutschland GmbH, priority 2012, published 2016).

Test system: human breast cell carcinoma line MT-3
Assay: Example 5: MT-3 xenograft tumor growth, three studies with different HES types
Format: in vivo
Description: In another set of three studies which were performed in analogy to the studies described above in Examples 1 and 2, more different HES types have been analysed in the same setting using the MT3 cell line mouse model.
Docetaxel (Taxotere®) was obtained from Sanofi-Aventis Deutschland GmbH, (Lot CHB D9C895; Berlin, Germany) and was stored in the dark at −20° C. until use. The injection solution was prepared immediately before use by dissolving in saline solution.
Hydroxyethyl starch compounds were obtained from Fresenius Kabi Deutschland GmbH on Dec. 7, 2012 and were stored at room temperature until use. The compounds each were dissolved in saline to obtain 10% w/v solutions. The application was 400 μl/20 g mouse body weight for saline and HES solutions, while Docetaxel was given in a volume of 10 ml/kg as slow bolus. The route of administration was intravenously for all mice.
Adult female NMRI:nu/nu mice (TACONIC Europe, Lille Skensved, Denmark) bred in the own (EPO) colony were used throughout the study. At the start of experiment they were 6-8 weeks of age.
The MT-3 cell line was used for subcutaneous (s.c.) xenotransplantation in immune deficient female NMRI:nu/nu mice. The MT-3 breast carcinoma cell line was obtained from the tumour bank of the National Cancer Institute of the former USSR, WONZ, Moscow.
The cells are cryo-preserved. Cells were thawed, expanded by in vitro culture and transplanted s.c. as cell suspension in female NMRI:nu/nu mice.
The number of 5×10^6 tumour cells was transplanted s.c into the flank of each mouse. The animals were monitored for tumour growth and when tumours were palpable, generally between day 7 and day 10 after transplantation, mice were randomised into the treatment groups with 15 mice each. Day 0 is defined as the day of first treatment.
Individual tumour diameters were measured twice weekly with a calliper-like instrument. Tumour volumes were calculated according to V=(length×(width)^2)/2. […] The relative tumour volume (RTV) and the treated to control (T/C RTV) values in percent were calculated for each measurement day in relation to V values at day 0.
In study 3 mice were sacrificed when the tumor size reached more than 1.5 cm^3, or the tumors ulcereted. Study 3 was finished when the mean TV was in most groups larger than 1.0 cm^3.
Mice were treated with i.v. injection of Docetaxel (Taxotere®) at day 0 and 14 at a dose of 40 mg/kg and with the hydroxyethyl starch compounds (20 ml/kg) once weekly.
In study 1 all mice developed tumours after s.c. transplantation of 5×10^6 MT-3 cells up to a size of 0.046±0.015 cm^3 within 7 days. Mice were treated intravenously with a dose of 40 mg/kg Docetaxel (Taxotere®) at days 0 and 14, whereas four different HES specifications in saline (containing each 10% w/v) were injected in a volume of 20 ml/kg i.v. weekly (day 0, 7, 14). Saline was injected once a week (20 ml/kg). All groups were treated during the whole experimental period accordingly to the planned schedule. The tumour of control mice in study 1 grew up to a volume of 1.1±0.6 cm^3.
In study 2 all mice developed tumours after s.c. transplantation of 5×10^6 MT-3 cells up to a size of 0.081±0.033 cm^3 within 9 days. Mice were treated intravenously with a dose of 40 mg/kg docetaxel at days 0 and 14, whereas four different HES specifications in saline (containing each 10% w/v) were injected in a volume of 20 ml/kg i.v. weekly (day 0, 7, 14). Saline was injected once per week (20 ml/kg). All groups were treated during the whole experimental period accordingly to the planned schedule. The tumour of control mice grew up until day 18 to a volume of 1.48±1.04 cm^3.
In study 3 all mice developed tumours after s.c. transplantation of 5×10^6 MT-3 cells up to a size of 0.059±0.018 cm3 within 7 days. […]

## CC(=O)O[C@@]12CO[C@@H]1C[C@H](O)[C@@]1(C)C(=O)[C@H](O)C3=C(C)[C@@H](OC(=O)[C@H](O)[C@@H](NC(=O)OC(C)(C)C)c4ccccc4)C[C@@](O)([C@@H](OC(=O)c4ccccc4)[C@H]21)C3(C)C [Docetaxel]
Studies 1 to 3, compared to saline control, FIGS. 7, 9, 11
  tumour growth inhibition effect (in words): strong inhibitory effect on tumour growth
Study 1
  RTV T/C: 14.4%
  inhibition of tumour growth: more than 85%
Study 2
  RTV T/C: 16.9%
  inhibition of tumour growth: 83%
Study 3, at day 7
  RTV T/C: 8.8%
  inhibition of tumour growth: 91%
